Data as given in ChEMBL document CHEMBL1201862, “PubChem BioAssay data set” (2004).
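Five compound concentrations were applied to cells in 96-well plates for 48 hours; endpoints were derived by simple linear interpolation of the resulting dose-response curve. At the GI50, growth is halved.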 The source made the active and inactive calls. No stated cut-off is given here; in the data, active = GI50 up to about 1.1 µM and inactive = higher.

Legend:
Experiment in all cases: NCI tumour cell line growth inhibition, 48 h
NCI-H460 = system: NCI-H460
K562 = system: K562
HCT-116 = system: HCT-116
HT-29 = system: HT-29
OVCAR-8 = system: OVCAR-8
LOX IMVI = system: LOX IMVI
DMS-114 = system: DMS-114
UACC-62 = system: UACC-62
SK-MEL-5 = system: SK-MEL-5
TK-10 = system: TK-10
RPMI-8226 = system: RPMI-8226
SK-MEL-2 = system: SK-MEL-2
SN12C = system: SN12C
OVCAR-4 = system: OVCAR-4
SNB-19 = system: SNB-19
SR = system: SR
BT-549 = system: BT-549
Hs-578T = system: Hs-578T
MCF7 = system: MCF7
MDA-MB-231 = system: MDA-MB-231

Measured: GI50

CCN(CC)CC(C(=O)Nc1c(C)cccc1C)/C(C)=N/NC(N)=S (stereo not drawn)
inactive: NCI-H460 > 100 µM | K562 > 100 µM | HCT-116 > 100 µM | HT-29 > 100 µM | OVCAR-8 > 100 µM | LOX IMVI > 100 µM | DMS-114 > 100 µM | UACC-62 > 100 µM | SK-MEL-5 > 100 µM | TK-10 > 100 µM | RPMI-8226 > 100 µM | SK-MEL-2 > 100 µM

OC(c1ccccn1)C1CNc2ccccc21 (stereo not drawn)
inactive: NCI-H460 > 100 µM | K562 > 100 µM | HCT-116 > 100 µM | SN12C > 100 µM | OVCAR-4 > 100 µM | HT-29 > 100 µM | SNB-19 > 100 µM | OVCAR-8 > 100 µM | LOX IMVI > 100 µM | DMS-114 > 100 µM | UACC-62 > 100 µM | SK-MEL-5 > 100 µM | TK-10 > 100 µM | RPMI-8226 > 100 µM | SK-MEL-2 > 100 µM

C/C=C(/I)CBr
inactive: NCI-H460 18.9 µM | K562 5.15 µM | HCT-116 13.9 µM | SN12C 17.2 µM | OVCAR-4 17.3 µM | SNB-19 23.7 µM | OVCAR-8 19.4 µM | LOX IMVI 16.2 µM | DMS-114 12.6 µM | UACC-62 15.5 µM | SK-MEL-5 15.5 µM | TK-10 > 10 µM | RPMI-8226 10.4 µM | SK-MEL-2 14.4 µM

Cc1ccc(C)c(N2C(=O)C(=O)C(c3nc4ccccc4o3)/C(=N/N)C2=O)c1 (stereo not drawn)
inactive: NCI-H460 > 100 µM | HCT-116 > 100 µM | SN12C > 100 µM | OVCAR-4 > 100 µM | HT-29 > 100 µM | SNB-19 > 100 µM | OVCAR-8 > 100 µM | DMS-114 > 100 µM | SR > 100 µM | UACC-62 > 100 µM | SK-MEL-5 > 100 µM | TK-10 > 100 µM | SK-MEL-2 > 100 µM

Cc1cnc(-c2c[nH]c3ccccc23)nc1-c1c[nH]c2ccccc12
inactive: BT-549 19 µM | Hs-578T 17.9 µM | NCI-H460 2.65 µM | K562 3.3 µM | HCT-116 4.56 µM | SN12C 1.68 µM | MCF7 3.05 µM | MDA-MB-231 2.31 µM | OVCAR-4 5.2 µM | HT-29 4.18 µM | SNB-19 7.89 µM | OVCAR-8 6.08 µM | LOX IMVI 3.62 µM | SR 11.3 µM | UACC-62 4.27 µM | SK-MEL-5 6.97 µM | TK-10 5.31 µM | RPMI-8226 3.9 µM | SK-MEL-2 6.44 µM

CC1=NN=C(NCCN(C)C)C/C1=C/c1ccccc1Cl
inactive: NCI-H460 > 100 µM | HCT-116 > 100 µM | SN12C > 100 µM | OVCAR-4 > 100 µM | HT-29 45.1 µM | SNB-19 > 100 µM | OVCAR-8 > 100 µM | LOX IMVI 90.6 µM | DMS-114 > 100 µM | UACC-62 > 100 µM | SK-MEL-5 48.6 µM | TK-10 > 100 µM | SK-MEL-2 > 100 µM

COC(=O)C(CC(C)=O)CS(=O)(=O)CC(=O)C(=O)Nc1cccc([N+](=O)[O-])c1 (stereo not drawn)
inactive: NCI-H460 > 100 µM | K562 > 100 µM | HCT-116 > 100 µM | SN12C > 100 µM | OVCAR-4 > 100 µM | SNB-19 > 100 µM | OVCAR-8 > 100 µM | LOX IMVI > 100 µM | DMS-114 > 100 µM | UACC-62 > 100 µM | SK-MEL-5 > 100 µM | TK-10 > 100 µM | RPMI-8226 > 100 µM | SK-MEL-2 > 100 µM

O=C(O)c1ccc(NCc2nc3cc4ccccc4cc3[nH]2)cc1
inactive: BT-549 > 100 µM | Hs-578T > 100 µM | NCI-H460 > 100 µM | K562 > 100 µM | HCT-116 > 100 µM | SN12C > 88.5 µM | MCF7 2.81 µM | MDA-MB-231 > 100 µM | OVCAR-4 > 90.4 µM | HT-29 > 100 µM | SNB-19 > 100 µM | OVCAR-8 > 100 µM | LOX IMVI > 100 µM | SR > 100 µM | UACC-62 > 100 µM | SK-MEL-5 > 21.4 µM | TK-10 > 100 µM | RPMI-8226 > 100 µM | SK-MEL-2 24.7 µM

O=C(O)/C=C\C(=O)Nc1ccc2c(c1)C(=O)c1cc(F)ccc1-2
inactive: BT-549 > 100 µM | Hs-578T 54.3 µM | NCI-H460 > 100 µM | K562 > 100 µM | HCT-116 > 100 µM | SN12C > 100 µM | MCF7 > 100 µM | MDA-MB-231 > 100 µM | OVCAR-4 > 100 µM | HT-29 > 100 µM | SNB-19 > 100 µM | OVCAR-8 > 100 µM | LOX IMVI > 100 µM | SR > 100 µM | UACC-62 > 100 µM | SK-MEL-5 > 100 µM | TK-10 > 100 µM | RPMI-8226 > 100 µM | SK-MEL-2 > 100 µM

CC1=NN(C(=O)CC(=O)Nc2ccccc2C)C(=O)C1/N=N\c1ccc(S(=O)(=O)c2ccc(/N=N/C3C(=O)N(C(=O)CC(=O)Nc4ccccc4C)N=C3C)cc2)cc1 (stereo not drawn)
inactive: BT-549 > 100 µM | Hs-578T 85.9 µM | NCI-H460 > 100 µM | K562 > 100 µM | HCT-116 > 100 µM | SN12C > 100 µM | MCF7 > 100 µM | MDA-MB-231 > 100 µM | OVCAR-4 > 100 µM | HT-29 > 100 µM | SNB-19 > 100 µM | OVCAR-8 74.6 µM | LOX IMVI > 100 µM | SR > 100 µM | UACC-62 > 100 µM | SK-MEL-5 62.2 µM | TK-10 > 100 µM | RPMI-8226 > 100 µM | SK-MEL-2 > 100 µM

CN(C)Cc1cc(C(C)(C)C)ccc1-c1ccc(C(C)(C)C)cc1CN(C)C
inactive: BT-549 > 100 µM | Hs-578T > 100 µM | NCI-H460 96.8 µM | K562 40.7 µM | HCT-116 > 100 µM | SN12C > 100 µM | MCF7 66.7 µM | MDA-MB-231 > 100 µM | OVCAR-4 > 100 µM | HT-29 35 µM | SNB-19 > 100 µM | OVCAR-8 > 100 µM | LOX IMVI > 100 µM | SR > 100 µM | UACC-62 > 100 µM | SK-MEL-5 > 100 µM | TK-10 > 100 µM | RPMI-8226 39.9 µM | SK-MEL-2 > 100 µM

Cc1cc2c(cc1C)[n+]([O-])c(-c1c(Cl)cccc1Cl)c(N)[n+]2[O-]
inactive: NCI-H460 30.3 µM | K562 32 µM | SN12C 50.9 µM | OVCAR-4 39 µM | HT-29 39.6 µM | SNB-19 25.5 µM | OVCAR-8 38.8 µM | LOX IMVI 44.7 µM | DMS-114 22.6 µM | UACC-62 23.2 µM | SK-MEL-5 20.7 µM | TK-10 > 100 µM | RPMI-8226 67.5 µM | SK-MEL-2 31.6 µM

COc1ccc(C(=O)C(c2ccc(OC)cc2)C2(O)C(=O)Nc3c(Cl)cc(Cl)cc32)cc1 (stereo not drawn)
inactive: NCI-H460 20.7 µM | K562 16.6 µM | SN12C 18.7 µM | OVCAR-4 6.34 µM | HT-29 19.4 µM | SNB-19 23.8 µM | OVCAR-8 23.7 µM | LOX IMVI 19.3 µM | DMS-114 18.4 µM | SK-MEL-5 18.5 µM | TK-10 22.5 µM | RPMI-8226 11.9 µM | SK-MEL-2 14.1 µM
